In ChEMBL document CHEMBL5604063, “ASAP - DENV-2 NS2B-NS3 protease fluorescence dose response” (2024):
Several values for one entry are separate records, joined by “and”; a condition that tells them apart may be missing. Equal values may be shown once.

Tests used:
Genome polyprotein [1] = biological target: T1, Genome polyprotein (dengue virus type 2, UniProt P29990); format: functional, Thailand/16681/1984
Genome polyprotein [2] = biological target: T1, Genome polyprotein; format: functional, Thailand/16681/1984; remark: listed apart in the source

T1 sequence (P29990 1346-1475 limits assumed): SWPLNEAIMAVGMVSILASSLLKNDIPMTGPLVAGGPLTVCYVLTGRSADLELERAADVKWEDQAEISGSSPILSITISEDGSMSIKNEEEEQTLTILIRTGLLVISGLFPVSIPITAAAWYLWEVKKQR
T1 sequence (P29990 1476-2093 limits assumed): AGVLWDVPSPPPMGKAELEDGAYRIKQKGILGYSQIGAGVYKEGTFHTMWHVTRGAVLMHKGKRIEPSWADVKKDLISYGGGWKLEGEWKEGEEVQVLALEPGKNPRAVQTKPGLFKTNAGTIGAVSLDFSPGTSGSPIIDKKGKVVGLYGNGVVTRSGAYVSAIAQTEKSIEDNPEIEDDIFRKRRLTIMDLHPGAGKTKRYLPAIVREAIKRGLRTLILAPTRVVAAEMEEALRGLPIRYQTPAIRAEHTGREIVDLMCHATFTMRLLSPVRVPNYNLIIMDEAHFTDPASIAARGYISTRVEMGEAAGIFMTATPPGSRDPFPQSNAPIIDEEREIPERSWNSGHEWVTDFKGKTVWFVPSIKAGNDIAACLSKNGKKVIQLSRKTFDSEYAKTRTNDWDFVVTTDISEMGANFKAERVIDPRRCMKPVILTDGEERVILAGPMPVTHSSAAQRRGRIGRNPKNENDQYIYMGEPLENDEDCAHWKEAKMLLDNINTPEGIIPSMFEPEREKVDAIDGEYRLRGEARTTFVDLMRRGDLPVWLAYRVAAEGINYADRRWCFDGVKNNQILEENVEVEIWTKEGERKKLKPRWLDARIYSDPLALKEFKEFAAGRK

For `CN1CCC([C@H]2CCCN(C(=O)Nc3ccc4c(c3)CNC4)C2)CC1`, which IC50 (Genome polyprotein [1]) is on record?
Its IC50 is > 99.5 µM.

And the IC50 (Genome polyprotein [2])?
The IC50 was > 100 µM.

How did the IC50 (Genome polyprotein [1]) turn out when `COCCNC(=O)[C@H](Nc1ccc2c(c1)CNC2)c1cc(Cl)cc(C2CC2)c1` was run?
Its IC50 is > 99.5 µM.

And the IC50 (Genome polyprotein [2])?
The IC50 was > 100 µM.

What does the source list for `Cc1cc(C(=O)Nc2ccc3c(c2)CNC3)c2cnn(C)c2n1`?
IC50 (Genome polyprotein [1]): > 99.5 µM; IC50 (Genome polyprotein [2]): > 100 µM

What does the source list for `Cc1cc(NC(=O)c2cc(Cl)cc3[nH]ncc23)ccc1N1CCNCC1`?
IC50 (Genome polyprotein [1]): 83.5 µM; IC50 (Genome polyprotein [2]): > 100 µM

What does the source list for `O=C(NC[C@H]1CCCO1)[C@H](Nc1ccc2c(c1)CNC2)c1cc(Cl)cc2[nH]ncc12`?
IC50 (Genome polyprotein [1]): > 99.5 µM; IC50 (Genome polyprotein [2]): > 100 µM

For `Cc1ccc(C)n1-c1ccc(Cl)cc1C(=O)Nc1ccc2c(c1)CNC2`, which IC50 (Genome polyprotein [1]) is on record?
Its IC50 is > 99.5 µM.

And the IC50 (Genome polyprotein [2])?
Its IC50 is > 100 µM.

Which results are given for `Cc1cccc(CNc2ccc(Cl)cc2C(=O)Nc2ccc3c(c2)CNC3)n1`?
IC50 (Genome polyprotein [1]): > 99.5 µM; IC50 (Genome polyprotein [2]): > 100 µM

With `COc1cc(Br)cc2c1NC(=O)[C@]2(Nc1ccc2c(c1)CNC2)C(N)=O` as the compound, how does the IC50 (Genome polyprotein [1]) read?
Its IC50 is > 99.5 µM.

And the IC50 (Genome polyprotein [2])?
The IC50 was > 100 µM.

For `N#C[C@H](Nc1ccc2c(c1)CNC2)c1cccc2[nH]ncc12`, which IC50 (Genome polyprotein [1]) is on record?
Its IC50 is > 99.5 µM.

What about the IC50 (Genome polyprotein [2]) of the same compound?
The IC50 was > 100 µM.

What does the source list for `O=C(Nc1ccc2c(c1)CNC2)c1cccc(-c2cnco2)c1`?
IC50 (Genome polyprotein [1]): 27.6 µM; IC50 (Genome polyprotein [2]): 57.7 µM and 70.3 µM

How did the IC50 (Genome polyprotein [1]) turn out when `N#Cc1cc(Cl)cc(C(=O)Nc2ccc3c(c2)CNC3)c1` was run?
The IC50 was > 99.5 µM.

What about the IC50 (Genome polyprotein [2]) of the same compound?
The IC50 was > 100 µM.

What does the source list for `Cn1cc2cc(Cl)cc(C(=O)Nc3ccc4c(c3)CNC4)c2n1`?
IC50 (Genome polyprotein [1]): > 99.5 µM; IC50 (Genome polyprotein [2]): 69.9 µM and > 100 µM

For `O=C(Nc1ccc2c(c1)CNC2)c1cc(Cl)cc2nccnc12`, which IC50 (Genome polyprotein [1]) is on record?
Its IC50 is 73.5 µM.

And the IC50 (Genome polyprotein [2])?
Its IC50 is 77.9 µM.

For `COCCOc1ccc(Cl)cc1C(=O)Nc1ccc2c(c1)CNC2`, which IC50 (Genome polyprotein [1]) is on record?
The IC50 was > 99.5 µM.

What about the IC50 (Genome polyprotein [2]) of the same compound?
Its IC50 is > 100 µM.

How did the IC50 (Genome polyprotein [1]) turn out when `O=C(Nc1ccc2c(c1)CNC2)N1CCC2(C1)CC(F)(F)C2` was run?
Its IC50 is > 99.5 µM.

And the IC50 (Genome polyprotein [2])?
The IC50 was > 100 µM.

What does the source list for `O=C(Nc1ccc2c(c1)CNC2)N1C[C@H](C2CC2)C[C@@H]1C1CC1`?
IC50 (Genome polyprotein [1]): > 99.5 µM; IC50 (Genome polyprotein [2]): > 100 µM

With `O=C(Nc1ccc2c(c1)CNC2)c1nc2ccccc2s1` as the compound, how does the IC50 (Genome polyprotein [1]) read?
Its IC50 is > 99.5 µM.

What about the IC50 (Genome polyprotein [2]) of the same compound?
Its IC50 is 87.8 µM.

For `O=C(NCc1ccc2c(c1)CCNC2)c1cc(Cl)cc2[nH]ncc12`, which IC50 (Genome polyprotein [1]) is on record?
The IC50 was > 99.5 µM.

And the IC50 (Genome polyprotein [2])?
Its IC50 is > 100 µM.

How did the IC50 (Genome polyprotein [1]) turn out when `CCc1ncc(Cl)cc1C(=O)Nc1ccc2c(c1)CNC2` was run?
Its IC50 is > 99.5 µM.

And the IC50 (Genome polyprotein [2])?
Its IC50 is > 100 µM.

What does the source list for `N#CCCNC(=O)[C@H](Nc1ccc2c(c1)CNC2)c1cc(Cl)cc(C2CC2)c1`?
IC50 (Genome polyprotein [1]): > 99.5 µM; IC50 (Genome polyprotein [2]): > 100 µM

`Cc1nc2cc(Cl)ccc2cc1C(=O)Nc1ccc2c(c1)CNC2` was tested. Which IC50 (Genome polyprotein [1]) did it give?
The IC50 was > 99.5 µM.

What about the IC50 (Genome polyprotein [2]) of the same compound?
Its IC50 is > 100 µM.

What does the source list for `C[C@H]1C[C@H](c2cccc(CN)c2)[C@@H](c2cc(Cl)cc(NC(=O)OCc3ccccc3)c2)C1`?
IC50 (Genome polyprotein [1]): 55.7 µM; IC50 (Genome polyprotein [2]): 77.6 µM

What does the source list for `O=C(Nc1ccc2c(c1)CNC2)c1cc(Br)cc2[nH]c([C@H]3CCOC3)nc12`?
IC50 (Genome polyprotein [1]): 98.5 µM; IC50 (Genome polyprotein [2]): > 100 µM

What does the source list for `CNC(=O)[C@H](Nc1ccc2c(c1)CNC2)c1cc(Cl)cc(C2CC2)c1`?
IC50 (Genome polyprotein [1]): > 99.5 µM; IC50 (Genome polyprotein [2]): > 100 µM

Which IC50 (Genome polyprotein [1]) does the source give for `O=C(Nc1ccc2c(c1)CNC2)c1c(Br)cc(Cl)c2[nH]ncc12` here?
The IC50 was > 99.5 µM.

What about the IC50 (Genome polyprotein [2]) of the same compound?
Its IC50 is > 100 µM.

Which IC50 (Genome polyprotein [1]) does the source give for `Cn1ncc(C(=O)Nc2cc(CCCN)ccn2)c1O` here?
Its IC50 is > 99.5 µM.

And the IC50 (Genome polyprotein [2])?
Its IC50 is > 100 µM.

Which IC50 (Genome polyprotein [1]) does the source give for `O=C(Nc1ccc2c(c1)CNC2)C1(c2ccc(Cl)cc2)CCCC1` here?
Its IC50 is > 99.5 µM.

And the IC50 (Genome polyprotein [2])?
Its IC50 is > 100 µM.

`O=C(Nc1ccc2c(c1)CNC2)c1c(Br)ccc2[nH]ncc12` was tested. Which IC50 (Genome polyprotein [1]) did it give?
The IC50 was > 99.5 µM.

What about the IC50 (Genome polyprotein [2]) of the same compound?
The IC50 was > 100 µM.

How did the IC50 (Genome polyprotein [1]) turn out when `N#C[C@]1(Nc2ccc3c(c2)CNC3)C(=O)Nc2ccc(Cl)cc21` was run?
Its IC50 is > 99.5 µM.

What about the IC50 (Genome polyprotein [2]) of the same compound?
The IC50 was > 100 µM.

How did the IC50 (Genome polyprotein [1]) turn out when `N#C[C@H](Nc1ccc2c(c1)CNC2)c1cc(Cl)cc(C2CC2)c1` was run?
Its IC50 is > 99.5 µM.

And the IC50 (Genome polyprotein [2])?
The IC50 was > 100 µM.

`O=C1Cc2c(cccc2C(=O)Nc2ccc3c(c2)C(=O)OC3)N1` was tested. Which IC50 (Genome polyprotein [1]) did it give?
The IC50 was > 99.5 µM.

And the IC50 (Genome polyprotein [2])?
The IC50 was > 100 µM.

Which IC50 (Genome polyprotein [1]) does the source give for `C[C@H]1Oc2c(cccc2C(=O)Nc2ccc3c(c2)CNC3)NC1=O` here?
The IC50 was 89.3 µM.

And the IC50 (Genome polyprotein [2])?
The IC50 was 90.4 µM.

How did the IC50 (Genome polyprotein [1]) turn out when `O=C(Nc1ccc2c(c1)CNC2)c1nccc2[nH]ncc12` was run?
Its IC50 is > 99.5 µM.

And the IC50 (Genome polyprotein [2])?
The IC50 was > 100 µM.

Which IC50 (Genome polyprotein [1]) does the source give for `CC(C)(C)OC(=O)N1Cc2ccc(NC(=O)c3cc(Cl)cc4[nH]ncc34)cc2C1` here?
Its IC50 is > 99.5 µM.

What about the IC50 (Genome polyprotein [2]) of the same compound?
The IC50 was > 100 µM.

Which IC50 (Genome polyprotein [1]) does the source give for `N#Cc1cc(Cl)cc([C@H](C#N)Nc2ccc3c(c2)CNC3)c1` here?
The IC50 was > 99.5 µM.

What about the IC50 (Genome polyprotein [2]) of the same compound?
The IC50 was > 100 µM.

What does the source list for `Cc1cnc([C@H]2CCCN(C(=O)Nc3ccc4c(c3)CNC4)C2)s1`?
IC50 (Genome polyprotein [1]): > 99.5 µM; IC50 (Genome polyprotein [2]): > 100 µM

For `CC(C)c1ccc(Cl)cc1C(=O)Nc1ccc2c(c1)CNC2`, which IC50 (Genome polyprotein [1]) is on record?
Its IC50 is > 99.5 µM.

What about the IC50 (Genome polyprotein [2]) of the same compound?
Its IC50 is > 100 µM.

Which IC50 (Genome polyprotein [1]) does the source give for `CCCN1C(=O)[C@](Nc2ccc3c(c2)CNC3)(C(N)=O)c2cc(Cl)ccc21` here?
Its IC50 is > 99.5 µM.

And the IC50 (Genome polyprotein [2])?
Its IC50 is > 100 µM.

For `Cc1c(C(=O)Nc2cc3c(cn2)OCC3)cc(C2CC2)n1C`, which IC50 (Genome polyprotein [1]) is on record?
The IC50 was > 99.5 µM.

And the IC50 (Genome polyprotein [2])?
Its IC50 is > 100 µM.

What does the source list for `O=C(Nc1ccc2c(c1)CNC2)c1cc(Br)cc2[nH]c(C3CCOCC3)nc12`?
IC50 (Genome polyprotein [1]): > 99.5 µM; IC50 (Genome polyprotein [2]): > 100 µM

How did the IC50 (Genome polyprotein [1]) turn out when `CC(C)COc1ccc(Cl)cc1C(=O)Nc1ccc2c(c1)CNC2` was run?
The IC50 was > 99.5 µM.

And the IC50 (Genome polyprotein [2])?
The IC50 was > 100 µM.

How did the IC50 (Genome polyprotein [1]) turn out when `CC(C)(C)O[C@H]1CCCN(C(=O)Nc2ccc3c(c2)CNC3)C1` was run?
Its IC50 is > 99.5 µM.

What about the IC50 (Genome polyprotein [2]) of the same compound?
The IC50 was > 100 µM.

How did the IC50 (Genome polyprotein [1]) turn out when `CC1(C)CN(C(=O)Nc2ccc3c(c2)CNC3)CC(F)(F)C1` was run?
The IC50 was > 99.5 µM.

What about the IC50 (Genome polyprotein [2]) of the same compound?
Its IC50 is > 100 µM.

For `Cc1c(C(=O)Nc2cc(CCCN)ccn2)cnn1C1CC1`, which IC50 (Genome polyprotein [1]) is on record?
The IC50 was > 99.5 µM.

And the IC50 (Genome polyprotein [2])?
Its IC50 is > 100 µM.
